Patent publication US6911469B2, “Sulfonamide compounds and pharmaceutical use thereof” (Fujisawa Pharmaceutical Co., Ltd., priority 1997, dated 2005)

Row | Structure (SMILES) | melting point
1 | CCCCS(=O)(=O)NC(=O)c1ccc2c(=O)n(C)c(Cc3ccc(Cl)cc3Cl)nc2c1 [Example 45, 7-(1-n-butanesulfonyl-carbamoyl)-2-(2,4-dichlorobenzyl)-3-methyl-4(3H)-quinazolinone] | 244 to 246 °C
2 | CCCCCS(=O)(=O)NC(=O)c1ccc2c(=O)nc(C)n(Cc3ccc(Cl)cc3Cl)c2c1 [Example 47-1, 1-(2,4-dichlorobenzyl)-2-methyl-7-(1-n-pentanesulfonylcarbamoyl)-4(1H)-quinazolinone] | 168 to 170 °C
3 | Cc1nc(=O)c2ccc(C(=O)NS(=O)(=O)c3ccccc3)cc2n1Cc1ccc(Cl)cc1Cl [Example 47-2, 7-(benzenesulfonylcarbamoyl)-1-(2,4-dichlorobenzyl)-2-methyl-4(1H)-quinazolinone] | 214 to 216 °C
4 | CCCCS(=O)(=O)NC(=O)c1ccc2nc(C)c(=O)n(Cc3ccc(Cl)cc3Cl)c2c1 [Example 49, 7-(1-n-butanesulfonyl-carbamoyl)-1-(2,4-dichlorobenzyl)-3-methyl-2(1H)-quinoxalinone] | 223 to 225 °C
5 | CCCCS(=O)(=O)NC(=O)c1ccc2c(c1)n(Cc1ccc(Cl)cc1Cl)c(=O)c(=O)n2C [Example 50, 7-(1-n-butanesulfonyl-carbamoyl)-1-(2,4-dichlorobenzyl)-4-methyl-2,3-(1H, 4H)-quinoxalinedione] | 243 to 246 °C
6 | Cc1nc2ccc(C(=O)NS(=O)(=O)c3ccccc3)cn2c1Cc1ccc(Cl)cc1Cl [Example 56, 6-(benzenesulfonylcarbamoyl)-3-(2,4-dichlorobenzyl)-2-methylimidazo[1,2-a]pyridine] | 308 to 310 °C
7 | Cc1nc2ccc(C(=O)NS(=O)(=O)c3ccccc3)nc2n1Cc1ccc(-c2cccs2)cc1Cl [Example 68, 5-(benzenesulfonylcarbamoyl)-3-[2-chloro-4-(thiophen-2-yl)benzyl]-2-methyl-3H-imidazo[4,5-b]pyridine] | 225 to 226 °C
8 | Cc1nc2ccc(C(=O)NS(=O)(=O)c3ccccc3)nc2n1Cc1ccc(-c2ccc(Cl)s2)cc1Cl [Example 69, 5-(benzenesulfonylcarbamoyl)-3-[2-chloro-4-(5-chlorothiophene-2-yl)benzyl]-2-methyl-3H-imidazo[4,5-b]pyridine] | 215 to 217 °C
9 | C=Cc1ccc(Cn2c(C)nc3ccc(C(=O)NS(=O)(=O)c4ccccc4)nc32)c(Cl)c1 [Example 71, 5-(benzenesulfonylcarbamoyl)-3-(2-chloro-4-vinylbenzyl)-2-methyl-3H-imidazo[4,5-b]pyridine] | 174 to 175 °C
10 | Cc1ccc(Cn2c(C)nc3ccc(C(=O)NS(=O)(=O)c4ccccc4)nc32)c(Cl)c1 [Example 72, 5-(benzenesulfonylcarbamoyl)-3-(2-chloro-4-methylbenzyl)-2-methyl-3H-imidazo[4,5-b]pyridine] | 213 to 215 °C
11 | CCCCCc1ccc(Cn2c(C)nc3ccc(C(=O)NS(=O)(=O)c4ccccc4)nc32)c(Cl)c1 [Example 73, 5-(benzenesulfonylcarbamoyl)-3-(2-chloro-4-(n-pentyl)benzyl)-2-methyl-3H-imidazo[4,5-b]pyridine] | 174 to 175 °C
12 | Cc1nc2ccc(C(=O)NS(=O)(=O)c3ccccc3)nc2n1Cc1ccc(CC(C)C)cc1Cl [Example 74, 5-(benzenesulfonylcarbamoyl)-3-(2-chloro-4-isobutylbenzyl)-2-methyl-3H-imidazo[4,5-b]pyridine] | 183 to 184 °C
13 | Cc1nc2ccc(C(=O)NS(=O)(=O)c3ccccc3)nc2n1Cc1ccc(CC2CCCCC2)cc1Cl [Example 75, 5-(benzenesulfonylcarbamoyl)-3-(2-chloro-4-(cyclohexylmethyl)benzyl)-2-methyl-3H-imidazo[4,5-b]pyridine] | 170 to 171 °C
14 | Cc1nc2ccc(C(=O)NS(=O)(=O)c3ccccc3)nc2n1Cc1ccc(/C=C/c2ccccc2)cc1Cl [Example 76, (E)-5-(benzenesulfonylcarbamoyl)-3-(2-chloro-4-(2-phenylethenyl)benzyl)-2-methyl-3H-imidazo[4,5-b]pyridine] | 262 to 263 °C
15 | Cc1nc2ccc(C(=O)NS(=O)(=O)c3ccccc3)nc2n1Cc1ccc(OCc2ccccc2)cc1Cl [Example 77, 5-(benzenesulfonylcarbamoyl)-3-(4-benzyloxy-2-chlorobenzyl)-2-methyl-3H-imidazo[4,5-b]pyridine] | 190 to 191 °C

Results, then the molecule that gave them:

Row | melting point | Structure (SMILES)
16 | 192 to 194 °C | Cc1nc2ccc(C(=O)NS(=O)(=O)/C=C/c3ccccc3)nc2n1Cc1ccc(Cl)cc1Cl [Example 65-3, (E)-3-(2,4-dichlorobenzyl)-2-methyl-5-[(2-phenylethenyl)sulfonylcarbamoyl]-3H-imidazo[4,5-b]pyridine]
17 | 206 to 207 °C | Cc1nc2ccc(C(=O)NS(=O)(=O)c3ccc(Cl)s3)nc2n1Cc1ccc(Cl)cc1Cl [Example 65-4, 5-((5-chlorothiophene-2-yl)sulfonylcarbamoyl)-3-(2,4-dichlorobenzyl)-2-methyl-3H-imidazo[4,5-b]pyridine]
18 | 168 to 169 °C | Cc1nc2ccc(C(=O)NS(=O)(=O)c3ccc(Br)s3)nc2n1Cc1ccc(Cl)cc1Cl [Example 65-5, 5-((5-bromothiophen-2-yl)sulfonylcarbamoyl)-3-(2,4-dichlorobenzyl)-2-methyl-3H-imidazo[4,5-b]pyridine]
19 | 204 to 205 °C | Cc1nc2ccc(C(=O)NS(=O)(=O)/C=C/c3ccccc3)nc2n1Cc1ccc(Br)cc1Cl [Example 66-1, (E)-3-(4-bromo-2-chlorobenzyl)-2-methyl-5-[(2-phenylethenyl)sulfonylcarbamoyl]-3H-imidazo[4,5-b]pyridine]
20 | 216 to 218 °C | Cc1nc2ccc(C(=O)NS(=O)(=O)/C=C/c3ccccc3)nc2n1Cc1ccc(-c2ccccc2)cc1Cl [Example 67-2, (E)-3-(2-chloro-4-phenylbenzyl)-2-methyl-5-[(2-phenylethenyl)sulfonylcarbamoyl]-3H-imidazo[4,5-b]pyridine]
21 | 210 to 212 °C | Cc1nc2ccc(C(=O)NS(=O)(=O)c3ccc(Cl)s3)nc2n1Cc1ccc(-c2ccccc2)cc1Cl [Example 67-3, 3-(2-chloro-4-phenylbenzyl)-5-[(5-chlorothiophene-2-yl)sulfonylcarbamoyl]-2-methyl-3H-imidazo[4,5-b]pyridine]
22 | 205 to 207 °C | Cc1nc2ccc(C(=O)NS(=O)(=O)c3ccc(Br)s3)nc2n1Cc1ccc(-c2ccccc2)cc1Cl [Example 67-5, 5-[(5-bromothiophen-2-yl)sulfonylcarbamoyl]-3-(2-chloro-4-phenylbenzyl)-2-methyl-3H-imidazo[4,5-b]pyridine]
23 | 138 to 139 °C | CCCCCS(=O)(=O)NC(=O)c1ccc2nc(C)n(Cc3ccc(CC)cc3Cl)c2n1 [Example 70-1, 3-(2-chloro-4-ethylbenzyl)-2-methyl-5-(1-pentanesulfonylcarbamoyl)-3H-imidazo[4,5-b]pyridine]
24 | 167 to 168 °C | CCc1ccc(Cn2c(C)nc3ccc(C(=O)NS(=O)(=O)c4ccccc4)nc32)c(Cl)c1 [Example 70-2, 5-(benzenesulfonylcarbamoyl)-3-(2-chloro-4-ethylbenzyl)-2-methyl-3H-imidazo[4,5-b]pyridine]
25 | 184 to 185 °C | CCc1ccc(Cn2c(C)nc3ccc(C(=O)NS(=O)(=O)/C=C/c4ccccc4)nc32)c(Cl)c1 [Example 70-4, (E)-3-(2-chloro-4-ethylbenzyl)-2-methyl-5-[(2-phenylethenyl)sulfonylcarbamoyl]-3H-imidazo[4,5-b]pyridine]
